The test system of one data set is bovine brain tubulin. Description: Tubulin polymerization inhibition (turbidimetry). In kind it is biochemical. As to conditions: for IC50: concentration inhibiting 50% of microtubular protein polymerization in vitro, read-out: TPI IC50; for Tubulin polymerization inhibition (in words): 10 µM; for % TPI: compounds tested at 10 µM, with respect to the negative control. The protocol:
Microtubular protein was isolated from calf brain following the modified Shelanski method, based on temperature-dependent assembly/disassembly of tubulin [45]. The protein was stored at −80 °C, and its concentration was determined using the Bradford method before each use. Tubulin polymerization, which occurs when heating a buffered tubulin sample from 4 °C to 37 °C, is accompanied by an increase in the absorbance (at 450 nm) of the sample that was monitored by a Helios α spectrophotometer. […] Then, the temperature was adjusted to 4 °C, and the temperature being shifted to 37 °C allowed for the assembly process of tubulin. The turbidity caused by tubulin polymerization was measured by the increased absorbance at 450 nm. The increase in absorbance obtained for the control sample (without the ligand), which we considered to be 100% tubulin polymerization (0% inhibition), compared with the increase in absorbance determined for the sample containing ligands yielded the degree of tubulin polymerization inhibition (TPI), which is expressed as a percentage value. For the compounds displaying TPI values over 50% at 10 µM, the IC50 value for TPI was calculated. Measurements were performed in triplicate in two independent experiments using microtubular protein from different preparations.

Another data set concerns GL261 cells. Description: Cell growth inhibition assay (MTT). The data set is classed as cell-based, murine. The following applies: Mus musculus, GL261, 72 h after drug exposure. The protocol:
(§1) The cell lines were obtained from ATTC (Manassas, VA, USA). HeLa (human cervix epithelioid carcinoma), MCF7 (human breast adenocarcinoma), HepG2 (human hepatocellular carcinoma), U87 MG (human glioblastoma), T98G (human glioblastoma), GL261 (murine glioma), LNCaP (human prostate cancer), PC-3 (human prostate cancer), and HEK-293 (human embryonic kidney) were grown in Dulbecco’s modified Eagle’s medium (DMEM, Gibco, Waltham, MA, USA), supplemented with 10% (v/v) heat-inactivated fetal bovine serum (HIFBS, Sigma-Aldrich, St. Louis, MO, USA)), 2 mM L-glutamine, 100 μg/mL streptomycin, and 100 units/mL penicillin (Gibco, Waltham, MA, USA) at 37 °C in saturated humidity atmosphere containing 95% air and 5% CO2. Cell line HT-29 (human colon carcinoma) was grown in Roswell Park Memorial Institute (RPMI) 1640 medium (Gibco, Whaltman, MA, USA) supplemented with 10% HIFBS, 100 μg/mL streptomycin, and 100 units/mL penicillin (Gibco, Whaltman, MA, USA) at 37 °C in humidified 95% air and 5% CO2 atmosphere. MycoAlert kit (Lonza, Norwest, Australia) was used to routinely check the presence of mycoplasma, and only mycoplasma-free cells were employed in the experiments.
(§2) Cells were plated in 96-well plates (100 µL/well) at the following concentrations: 30,000 cells/mL (HepG2, U87 MG, T98G, C6, LNCaP, PC3, and HT-29 cells) or 15,000 cells/mL (HeLa and MCF-7 cells). Previous experiments were performed to choose the optimal cell concentration (70–80% confluence) and avoid the formation of cell aggregates. Cells were incubated in complete DMEM or RPMI 1640 medium (see above) at 37 °C and 5% CO2 atmosphere for 24 h to allow for cell attachment to the plate. Then, every compound was added (10 µL/well) to a final concentration of 10 µM. Non-treated cells were used as negative controls. The antiproliferative activity of compounds was measured 72 h after the treatments using the MTT reagent (3-[4,5-dimethylthiazol-2-yl]-2,5-diphenyltetrazolium bromide), (MTT Thiazolyl Blue Tetrazolium Bromide, Sigma-Aldrich, St. Louis, MO, USA) dissolved in PBS at 5 mg/mL. Compounds showing antiproliferative effects at 10 µM were selected to determine their IC50 value. For that purpose, compounds were used at different concentrations ranging from 10^−10 to 10^−2 M. Measurements were performed in triplicate, and each experiment was repeated three times. The IC50 value was determined for every compound using Origin software (OriginLab, Washington, USA). To study the sensitivity to MDR efflux pumps of compounds, the IC50 values were determined by following the same procedure but in the presence of verapamil (final concentration of 10 µM).

The test system of the next data set is HEK-293 cells. Put plainly: Cell growth inhibition assay (MTT), non-tumorigenic cells. The data set is classed as cell-based, human. As to conditions: Homo sapiens, HEK293, 72 h after drug exposure, non-tumorigenic cell line. On the procedure: as §1, §2
The next data set deals with T98G cells. Put plainly: Cell growth inhibition assay (MTT). In kind it is cell-based, human. As to conditions: Homo sapiens, T98G, 72 h after drug exposure. The protocol:
as §1, §2

The next data set concerns LNCaP cells. Description: Cell growth inhibition assay (MTT). In kind it is cell-based, human. As to conditions: Homo sapiens, LNCaP, 72 h after drug exposure. The protocol:
as §1, §2

Another data set deals with U87MG cells. Put plainly: Cell growth inhibition assay (MTT). In kind it is cell-based, human. The following applies: Homo sapiens, U-87 MG; MTT, 72 h after drug exposure. On the procedure: as §1, §2
Data set [1] has as its system HT-29 cells. Put plainly: Cell growth inhibition assay (MTT). In kind it is cell-based, human. As to conditions: Homo sapiens, HT-29, 72 h after drug exposure. On the procedure: as §1, §2
Another data set concerns PC-3 cells. Description: Cell growth inhibition assay (MTT). As to conditions: Homo sapiens, PC-3, 72 h after drug exposure. The data set is classed as cell-based, human. The protocol: as §1, §2
A further data set deals with HepG2 cells. Description: Cell growth inhibition assay (MTT). The data set is classed as cell-based, human. The following applies: Homo sapiens, HepG2, 72 h after drug exposure. The protocol: as §1, §2
The test system of the next data set is HeLa cells. Put plainly: Cell growth inhibition assay (MTT). The following applies: Homo sapiens, HeLa, 72 h after drug exposure. In kind it is cell-based, human. On the procedure: as §1, §2
A further data set relates to MCF7 cells. Put plainly: Cell growth inhibition assay (MTT). The data set is classed as cell-based, human. As to conditions: Homo sapiens, MCF7; MTT, 72 h after drug exposure. The protocol:
as §1, §2

Data set [2] deals with HT-29 cells. Description: Cell growth inhibition (MTT) in the presence of 10 µM verapamil (sensitivity to MDR efflux pumps). In kind it is cell-based, human. As to conditions: 10 µM verapamil (P-gp/MDR1 inhibitor). The protocol:
as §2

The nature of data set [3]: Aqueous solubility, shake-flask method. The data set is classed as physicochemical. As to conditions: pH 7.0 buffer, pH 7, aqueous buffer, thermodynamic from solid, shaking flask, buffered media at pH 7.0, mean of three. On the procedure:
The aqueous solubility of compounds was measured in a Helios Alfa Spectrophotometer. Calibration lines at the maximum wavelength of absorbance were determined for each compound. Then, following the shake-flask method, a suspension of 5 mg of each compound in 500 µL in pH 7.0 buffer was stirred for 72 h at room temperature. The mixture was then filtrated over a […] filter to remove the insoluble fraction. The concentration of the compound in the resulting saturated solution was determined via UV absorbance measurement and interpolation in the calibration line. The aqueous solubility values are given as the average of three independent measurements.

As a reminder, the IC50 is the concentration needed to halve the response being measured. The term solubility denotes the dissolved amount per volume that the medium holds. Higher therefore signals much dissolved substance.

Converted amounts (≈) assume the structure as drawn. Bounds are passed on as bounds.

`COc1ccc(S(=O)(=O)Nc2cccnc2Nc2ccc(O)cc2)cc1` [ABT-751, reference compound]: the IC50 with bovine brain tubulin was 4.4 µM; with GL261 cells, 0.309 µM; with HEK-293 cells it was 1.23 µM; in the data set on T98G cells it was 0.421 µM; with LNCaP cells it was 0.325 µM; in the data set with U87MG cells, 0.375 µM. Moreover, the IC50 in the data set with HT-29 cells [1] amounted to 0.213 µM; in the data set with PC-3 cells, 0.422 µM; with HepG2 cells, 0.327 µM; in the data set with HeLa cells, 0.388 µM; with MCF7 cells, 0.18 µM.
Regarding `COc1ccc2nc(NCc3[nH]cnc3C)sc2c1` [Compound 4, 6-methoxy-N-((4-methyl-1H-imidazol-5-yl)methyl)benzo[d]thiazol-2-amine], the “Tubulin polymerization inhibition (in words)” value in the data set with bovine brain tubulin is listed as “not able to inhibit tubulin polymerization”. Also, in the data set on bovine brain tubulin, the “% TPI” value stood at 0%. The IC50 with bovine brain tubulin, in the data set on HT-29 cells [2], in the data set on GL261 cells, in the data set with HEK-293 cells, with T98G cells and in the data set with LNCaP cells was greater than 10 µM throughout. The IC50 in the data set with U87MG cells is greater than 10 µM; in the data set on HT-29 cells [1], greater than 10 µM; with PC-3 cells, greater than 10 µM; in the data set on HepG2 cells it was greater than 10 µM; with HeLa cells it was 9.33 µM; with MCF7 cells, greater than 10 µM. Moreover, the solubility at 72 h in [3] stood at 86 µg/mL (≈ 313 µM).
Take `COc1ccc2nc(NCc3ccccc3)sc2c1` [Compound 5, N-benzyl-6-methoxybenzo[d]thiazol-2-amine]: the “% TPI” value in the data set with bovine brain tubulin amounted to 0%. Further, the IC50 with bovine brain tubulin is greater than 10 µM; in the data set on HT-29 cells [2], greater than 10 µM; in the data set with GL261 cells it was 7.25 µM; with HEK-293 cells it was greater than 10 µM; in the data set on T98G cells it was greater than 10 µM; in the data set on LNCaP cells it was 5.97 µM. In addition, the IC50 in the data set on U87MG cells is 8.31 µM; with HT-29 cells [1], greater than 10 µM; with PC-3 cells, greater than 10 µM; in the data set with HepG2 cells, 5.78 µM; in the data set with HeLa cells, 4.36 µM; with MCF7 cells it was 6.31 µM. Moreover, the concentration in solution in data set [3] (solubility at 72 h) was 5 µg/mL (≈ 18.5 µM).
`COc1ccc2nc(NCc3ccc4ccccc4c3)sc2c1` [Compound 6, 6-methoxy-N-(naphthalen-2-ylmethyl)benzo[d]thiazol-2-amine]: in the data set on bovine brain tubulin, the “Tubulin polymerization inhibition (in words)” value is “not able to inhibit tubulin polymerization”. In the data set on bovine brain tubulin, the “% TPI” value was 7%. The concentration for half-maximal inhibition (IC50) in the data set on bovine brain tubulin was greater than 10 µM; in the data set with HT-29 cells [2] it was greater than 10 µM; with GL261 cells, 6.25 µM; with HEK-293 cells it was greater than 10 µM; with T98G cells, greater than 10 µM; with LNCaP cells it was 4.32 µM. Also, the IC50 was 6.54 µM in the data set on U87MG cells; greater than 10 µM with HT-29 cells [1]; greater than 10 µM in the data set on PC-3 cells; 4.51 µM with HepG2 cells; 3.71 µM in the data set on HeLa cells; 4.23 µM in the data set on MCF7 cells.
As for `CCNC(=O)N(Cc1[nH]cnc1C)c1nc2ccc(OC)cc2s1` [Compound 10, 3-ethyl-1-(6-methoxybenzo[d]thiazol-2-yl)-1-((4-methyl-1H-imidazol-5-yl)methyl)-urea], the “Tubulin polymerization inhibition (in words)” value in the data set with bovine brain tubulin was “not able to inhibit tubulin polymerization”. In addition, the “% TPI” value with bovine brain tubulin stood at 0%. Further, the IC50 in the data set with bovine brain tubulin, in the data set on HT-29 cells [2], in the data set with GL261 cells, with HEK-293 cells, with T98G cells and with LNCaP cells was greater than 10 µM in each case. Also, the IC50 in the data set on U87MG cells, in the data set with HT-29 cells [1], in the data set with PC-3 cells, in the data set with HepG2 cells, in the data set with HeLa cells and in the data set on MCF7 cells was greater than 10 µM in each case. In [3], this compound yielded a solubility at 72 h of 178 µg/mL (≈ 515 µM).
Take `CCNC(=O)N(Cc1ccccc1)c1nc2ccc(OC)cc2s1` [Compound 11, 1-benzyl-3-ethyl-1-(6-methoxybenzo[d]thiazol-2-yl)urea]: the “% TPI” value in the data set with bovine brain tubulin was determined as 6%. The IC50 in the data set on bovine brain tubulin was greater than 10 µM; in the data set with HT-29 cells [2] it was greater than 10 µM; in the data set on GL261 cells, 2.93 µM; in the data set on HEK-293 cells, greater than 10 µM; in the data set with T98G cells, greater than 10 µM; with LNCaP cells it was 2.37 µM. Also, the IC50 in the data set with U87MG cells is 2.91 µM; with HT-29 cells [1] it was greater than 10 µM; in the data set on PC-3 cells, greater than 10 µM; with HepG2 cells, 2.45 µM; in the data set on HeLa cells, 2.71 µM; in the data set on MCF7 cells, 2.04 µM. The compound also yielded a solubility at 72 h in [3] of 16 µg/mL (≈ 46.9 µM).
For `CCNC(=O)N(Cc1ccc2ccccc2c1)c1nc2ccc(OC)cc2s1` [Compound 12, 3-ethyl-1-(6-methoxybenzo[d]thiazol-2-yl)-1-(naphthalen-2-ylmethyl)urea], the “Tubulin polymerization inhibition (in words)” value in the data set with bovine brain tubulin is listed as “not able to inhibit tubulin polymerization”. Also, the “% TPI” value in the data set on bovine brain tubulin is on record as 0%. Besides, the half-maximal inhibitory concentration (IC50) in the data set on bovine brain tubulin, with HT-29 cells [2], in the data set with GL261 cells, with HEK-293 cells, in the data set on T98G cells and in the data set with LNCaP cells was greater than 10 µM throughout. Further, the IC50 in the data set with U87MG cells, with HT-29 cells [1], with PC-3 cells, in the data set with HepG2 cells, with HeLa cells and with MCF7 cells was greater than 10 µM throughout. This compound displayed a solubility at 72 h in [3] of less than 9 µg/mL.
Consider `CC(=O)O[C@@]12CO[C@@H]1C[C@H](O)[C@@]1(C)C(=O)[C@H](O)C3=C(C)[C@@H](OC(=O)[C@H](O)[C@@H](NC(=O)OC(C)(C)C)c4ccccc4)C[C@@](O)([C@@H](OC(=O)c4ccccc4)[C@H]21)C3(C)C` [DTX, docetaxel, reference compound], for which the IC50 in the data set on GL261 cells turned out to be 0.035 µM; in the data set with HEK-293 cells it was 1.55 µM; with T98G cells, 0.059 µM; in the data set on LNCaP cells, 0.01 µM; in the data set with U87MG cells, 0.022 µM; in the data set with HT-29 cells [1] it was 0.307 µM. Also, the IC50 with PC-3 cells stood at 0.02 µM; in the data set on HepG2 cells, 0.055 µM; in the data set with HeLa cells, 0.051 µM; with MCF7 cells it was 0.013 µM.
